Reference: ChEMBL document CHEMBL4257560, “Synthesis and antiviral activity of camphor-based 1,3-thiazolidin-4-one and thiazole derivatives as Orthopoxvirus-reproduction inhibitors” (Medchemcomm, 2018)

Key:
Vaccinia virus = assay: Antiviral activity against Vaccinia virus Copenhagen infected in African green monkey Vero cells assessed as inhibition of viral reproduction after 4 days by neural red dye-based assay; format: functional, organism-based, Orthopoxvirus vaccinia
[1] = Cytotoxicity against African green monkey Vero cells after 4 days by neural red dye-based assay; format: cell-based; conditions: chlorocebus sabaeus, read-out: TC50
[2] = Selectivity index, ratio of TC50 for African green monkey Vero cells to IC50 for Vaccinia virus Copenhagen; format: toxicity; conditions: read-out: Selectivity Index
[3] = Orthopoxvirus vaccinia, Copenhagen, Vero, 96 h, read-out: IC50

Structure (SMILES) | IC50 (Vaccinia virus; [3]) [µM] | CC50 at 96 h [1] [µM] | selectivity ratio [2] | IC50 (Vaccinia virus; vero)
CC1(C)[C@H]2CC[C@]1(C)[C@H](OC(=O)CCN1CCOCC1)C2 | 3.5 |  |  | 
CCCCN1C(=O)CS/C1=N\N=C1/C[C@H]2CC[C@]1(C)C2(C)C | 3.2 | 25.2 | 8 | 
CC1(C)[C@@H]2CC[C@@]1(C)/C(=N/N=C1/NC(=S)CS1)C2 | 3.3 | 17.5 | 5 | 
C=CCN1C(=O)CS/C1=N\N=C1/C[C@H]2CC[C@]1(C)C2(C)C | 14.4 | 164 | 11 | 
CC1(C)[C@@H]2CC[C@@]1(C)/C(=N/Nc1nc(-c3ccc([N+](=O)[O-])cc3)cs1)C2 |  | 261 |  | Not Active
COc1ccc(-c2csc(N/N=C3\C[C@H]4CC[C@]3(C)C4(C)C)n2)cc1 | 3.7 | 93.6 | 26 | 
CC1(C)[C@@H]2CC[C@@]1(C)/C(=N/Nc1nc(-c3ccc(Cl)cc3)cs1)C2 | 2.7 | 64.1 | 24 | 
CC1(C)[C@@H]2CC[C@@]1(C)/C(=N/Nc1nc(-c3ccc(F)cc3)cs1)C2 |  | 176 |  | Not Active
CC1CCN(CCC(=O)N[C@@H]2C[C@H]3CC[C@]2(C)C3(C)C)CC1 | 2.5 |  |  | 
CC1(C)[C@@H]2CC[C@@]1(C)/C(=N/N=C1/NC(=O)/C(=C/c3ccccc3)S1)C2 | 5.2 | 14.5 | 3 | 
CC(C)CCN1C(=O)CS/C1=N\N=C1/C[C@H]2CC[C@]1(C)C2(C)C |  | 37.5 |  | Not Active
CC1(C)[C@@H]2CC[C@@]1(C)/C(=N/NC(N)=S)C2 | 17.7 | 225 | 13 | 
CC1(C)[C@@H]2CC[C@@]1(C)/C(=N/N=C1/NC(=O)CS1)C2 |  | 305 |  | Not Active
CC1(C)[C@@H]2CC[C@@]1(C)/C(=N/N=C1\SCC(=O)N1Cc1ccccc1)C2 |  | 288 |  | Not Active
Cc1ccc(-c2csc(N/N=C3\C[C@H]4CC[C@]3(C)C4(C)C)n2)cc1 | 4.5 | 13.7 | 3 | 
CC1(C)[C@@H]2CC[C@@]1(C)/C(=N/Nc1nc(-c3ccccc3)cs1)C2 | 3.2 | 13.9 |  | 
CC1(C)[C@@H]2CC[C@@]1(C)/C(=N/Nc1nc(-c3ccc(Br)cc3)cs1)C2 | 2.4 | 77.1 | 32 | 
Cc1ccc(/C=C2\S/C(=N\N=C3/C[C@H]4CC[C@]3(C)C4(C)C)NC2=O)cc1 (stereo in doubt) | 9.5 | 120 | 13 | 
Nc1ccn(C[C@@H](CO)OCP(=O)(O)O)c(=O)n1 [CIDOFOVIR] | 40 | 475 | 12 | 
